Results taken from US10800792B2, “Inhibitors of Bruton's tyrosine kinase and method of their use” (JANSSEN PHARMACEUTICA NV, priority 2015, dated 2020).
Read-outs that look alike come from different tables or passages of the source.

Target: unphosphorylated-BTK kinase domain (UP-BTK), GST-tagged human BTK (389-659aa) (Homo sapiens (Human), UniProt Q06187)
Experiment: BTK kinase Lanthascreen binding assay
Conditions: 60 minutes incubation, pIC50 = negative log of the IC50 in molar; for IC50: read-out: BTK_I_binding pIC50 (converted)
Procedure, shortened: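 Lanthascreen competition binding; test compound vs fluorescent tracer on unphosphorylated BTK. Output: pIC50 (−log IC50, M).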

[1] = Lanthascreen tracer competition

Chain of unphosphorylated-BTK kinase domain (UP-BTK), GST-tagged human BTK (389-659aa) (Q06187 389-659): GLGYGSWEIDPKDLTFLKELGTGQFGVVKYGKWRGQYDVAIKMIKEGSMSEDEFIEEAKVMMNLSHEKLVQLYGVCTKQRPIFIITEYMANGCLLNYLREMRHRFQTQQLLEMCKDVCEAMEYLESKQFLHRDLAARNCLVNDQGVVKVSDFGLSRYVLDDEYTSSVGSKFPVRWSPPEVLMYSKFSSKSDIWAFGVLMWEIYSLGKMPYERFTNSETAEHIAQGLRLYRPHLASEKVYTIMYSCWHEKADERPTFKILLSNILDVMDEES

| BTK_I_binding pIC50 [1] | Structure (SMILES) | also measured |
| --- | --- | --- |
| 6.2 | C=CC(=O)N1CCC[C@@H](NC(=O)c2sc3nccc4c3c2NC(=O)N4c2cnc(OC3CCCC3)cc2C)C1 (single isomer, unassigned) [Example 769, (R)—N-(1-Acryloylpiperidin-3-yl)-5-(*R)-(6-(cyclopentyloxy)-4-methylpyridin-3-yl)-4-oxo-4,5-dihydro-3H-1-thia-3,5,8-triazaacenaphthylene-2-carboxamide] | – |
| 7.7 | Cc1cc(Oc2ccccc2)ccc1N1C(=O)Nc2c(C(=O)N[C@@H]3CCCN(C(=O)C(C#N)=CC4(C)COC4)C3)sc3nccc1c23 (single isomer, unassigned) [Example 782, (R,EZ)—N-(1-(2-Cyano-3-(3-methyloxetan-3-yl)acryloyl)piperidin-3-yl)-5-(*S)-(2-methyl-4-phenoxyphenyl)-4-oxo-4,5-dihydro-3H-1-thia-3,5,8-triazaacenaphthylene-2-carboxamide] | – |
| 8.1 | C=CC(=O)N1CCC[C@@H](NC(=O)c2sc3nccc4c3c2NC(=O)N4c2cnc(OC(C)C)cc2C)C1 (single isomer, unassigned) [Example 789, (R)—N-(1-Acryloylpiperidin-3-yl)-5-(*S)-(6-isopropoxy-4-methylpyridin-3-yl)-4-oxo-4,5-dihydro-3H-1-thia-3,5,8-triazaacenaphthylene-2-carboxamide] | – |
| 6.8 | Cc1nc(Oc2ccccc2)ccc1N1C(=O)Nc2c(C(=O)N[C@@H]3CCOC3)sc3nccc1c23 (single isomer, unassigned) [Example 793, (R)-5-(*S)-(2-Methy-6-phenoxypyridin-3-yl)-4-oxo-N-(tetrahydrofuran-3-yl)-4,5-dihydro-3H-1-thia-3,5,8-triazaacenaphthylene-2-carboxamide] | – |
| 6.5 | Cc1cc(OC(C)C)ncc1N1C(=O)Nc2c(C(=O)N[C@@H]3CCCNC3)sc3nccc1c23 (single isomer, unassigned) [Example 794, (R)-5-(*S)-(6-Isopropoxy-4-methylpyridin-3-yl)-4-oxo-N-(piperidin-3-yl)-4,5-dihydro-3H-1-thia-3,5,8-triazaacenaphthylene-2-carboxamide] | – |
| 6.3 | Cc1cc(OC2CCCC2)ncc1N1C(=O)Nc2c(C(=O)N[C@@H]3CCNC3)sc3nccc1c23 (single isomer, unassigned) [Example 797, (R)-5-(*S)-(6-(Cyclopentyloxy)-4-methylpyridin-3-yl)-4-oxo-N-(pyrrolidin-3-yl)-4,5-dihydro-3H-1-thia-3,5,8-triazaacenaphthylene-2-carboxamide] | – |
| 6.1 | C=CC(=O)N1CCC[C@@H](NC(=O)c2sc3nccc4c3c2NC(=O)N4c2cnc(OC(C)C)cc2C)C1 (single isomer, unassigned) [Example 804, (R)—N-(1-Acryloylpiperidin-3-yl)-5-(*R)-(6-isopropoxy-4-methylpyridin-3-yl)-4-oxo-4,5-dihydro-3H-1-thia-3,5,8-triazaacenaphthylene-2-carboxamide] | – |
| <6 | Cc1cc(OC(C)C)ncc1N1C(=O)Nc2c(C(=O)N[C@@H]3CCCNC3)sc3nccc1c23 (single isomer, unassigned) [Example 806, (R)-5-(*R)-(6-Isopropoxy-4-methylpyridin-3-yl)-4-oxo-N-(piperidin-3-yl)-4,5-dihydro-3H-1-thia-3,5,8-triazaacenaphthylene-2-carboxamide] | – |
| – | C=CC(=O)N1CCC[C@@H](NC(=O)c2sc3nccc4c3c2NC(=O)N4c2ccc(OC3CCOCC3)cc2C)C1 (single isomer, unassigned) [Example 813, (R)—N-(1-Acryloylpiperidin-3-yl)-5-(*S)-(2-methyl-4-((tetrahydro-2H-pyran-4-yl)oxy)phenyl)-4-oxo-4,5-dihydro-3H-1-thia-3,5,8-triazaacenaphthylene-2-carboxamide] | IC50 [1]: > 1000 nM |
| <6 | C=CC(=O)N1CCC[C@@H](NC(=O)c2sc3nccc4c3c2NC(=O)N4c2ccc(OC3CCOCC3)cc2C)C1 (single isomer, unassigned) [Example 814, (R)—N-(1-Acryloylpiperidin-3-yl)-5-(*R)-(2-methyl-4-((tetrahydro-2H-pyran-4-yl)oxy)phenyl)-4-oxo-4,5-dihydro-3H-1-thia-3,5,8-triazaacenaphthylene-2-carboxamide] | – |
| 8.0 | C=CS(=O)(=O)N1CC[C@@H](NC(=O)c2sc3nccc4c3c2NC(=O)N4c2ccc(Oc3ccccc3)cc2C)C1 (single isomer, unassigned) [Example 834, (R)-5-(*S)-(2-Meth-4-phenoxyphenyl)-4-oxo-N-(1-(vinylsulfonyl)pyrrolidin-3-yl)-4,5-dihydro-3H-1-thia-3,5,8-triazaacenaphthylene-2-carboxamide] | – |
| 7.6 | Cc1cc(Oc2ccccc2)ccc1N1C(=O)Nc2c(C(=O)N[C@@H]3CCCN(C(=O)/C=C/CN4CCCC4)C3)sc3nccc1c23 (single isomer, unassigned) [Example 845, (R,E)-5-(*S)-(2-Methyl-4-phenoxyphenyl)-4-oxo-N-(1-(4-(pyrrolidin-1-yl)but-2-enoyl)piperidin-3-yl)-4,5-dihydro-3H-1-thia-3,5,8-triazaacenaphthylene-2-carboxamide] | – |
| 7.3 | Cc1cc(Oc2ccccc2)ccc1N1C(=O)Nc2c(C(=O)N[C@@H]3CCCN(C(=O)/C(C#N)=C/C(C)(C)C)C3)sc3nccc1c23 (single isomer, unassigned) [Example 866, (R,E)-N-(1-(2-Cyano-4,4-dimethylpent-2-enoyl)piperidin-3-yl)-5-(*S)-(2-methyl-4-phenoxyphenyl)-4-oxo-4,5-dihydro-3H-1-thia-3,5,8-triazaacenaphthylene-2-carboxamide] | – |
| – | C=CC(=O)N1CC[C@@H](NC(=O)c2sc3nccc4c3c2NC(=O)N4c2cnc(OC(C)C)cc2C)C1 (single isomer, unassigned) [Example 959, (R)—N-(1-Acryloylpyrrolidin-3-yl)-5-(*S)-(6-isopropoxy-4-methylpyridin-3-yl)-4-oxo-4,5-dihydro-3H-1-thia-3,5,8-triazaacenaphthylene-2-carboxamide] | BTK_I_binding pIC50 (unphosphorylated-BTK kinase domain, 50 nM Tracer 236): 7.5 |
| – | C=CC(=O)N1CC(F)C[C@@H](NC(=O)c2sc3nccc4c3c2NC(=O)N4c2ccc(Oc3ccccc3)cc2C)C1 (stereo in doubt) [Example 3, N-((3R,5S)-1-Acryloyl-5-fluoropiperidin-3-yl)-5-(2-methyl-4-phenoxyphenyl)-4-oxo-4,5-dihydro-3H-1-thia-3,5,8-triazaacenaphthylene-2-carboxamide] | BTK_I_binding pIC50 (50 nM Tracer 236): 7.9 |
| – | Cc1cc(Oc2ccccc2)ccc1N1C(=O)Nc2c(C(=O)NC3CCCN(C(=O)/C=C/CO)C3)sc3nccc1c23 (stereo in doubt) [Example 25, (S,E)-N-(1-(4-Hydroxybut-2-enoyl)piperidin-3-yl)-5-(2-methyl-4-phenoxyphenyl)-4-oxo-4,5-dihydro-3H-1-thia-3,5,8-triazaacenaphthylene-2-carboxamide] | BTK_I_binding pIC50 (50 nM Tracer 236): 7.5 |
| – | C=CC(=O)N1CC(OC)[C@@H](NC(=O)c2sc3nccc4c3c2NC(=O)N4c2ccc(Oc3ccccc3)cc2C)C1 (stereo in doubt) [Example 34, N-((3S,4R)-1-Acryloyl-4-methoxypyrrolidin-3-yl)-5-(2-methyl-4-phenoxyphenyl)-4-oxo-4,5-dihydro-3H-1-thia-3,5,8-triazaacenaphthylene-2-carboxamide] | IC50 (50 nM Tracer 236): 25.1 nM |
| – | C=CC(=O)N1CC(O)[C@@H](NC(=O)c2sc3nccc4c3c2NC(=O)N4c2ccc(Oc3ccccc3)cc2C)C1 (stereo in doubt) [Example 50, N-((3S,4S)-1-Acryloyl-4-hydroxypyrrolidin-3-yl)-5-(2-methyl-4-phenoxyphenyl)-4-oxo-4,5-dihydro-3H-1-thia-3,5,8-triazaacenaphthylene-2-carboxamide] | BTK_I_binding pIC50 (50 nM Tracer 236): 7.5 |
| – | Cc1cc(Oc2ccccc2F)ccc1N1C(=O)Nc2c(C(=O)NC3CCCN(C)C3)sc3nccc1c23 (stereo in doubt) [Example 57, (R)-5-(4-(2-Fluorophenoxy)-2-methylphenyl)-N-(1-methylpiperidin-3-yl)-4-oxo-4,5-dihydro-3H-1-thia-3,5,8-triazaacenaphthylene-2-carboxamide] | BTK_I_binding pIC50 (50 nM Tracer 236): 6.8 |
| – | C=CC(=O)N1CC(NC(=O)c2sc3nccc4c3c2NC(=O)N4c2ccc(Oc3ccccc3)cc2)C[C@@H](O)C1 (stereo in doubt) [Example 589, N-((3R,5R)-1-Acryloyl-5-hydroxypiperidin-3-yl)-4-oxo-5-(4-phenoxyphenyl)-4,5-dihydro-3H-1-thia-3,5,8-triazaacenaphthylene-2-carboxamide] | IC50 [1]: 7.94 nM |
| – | Cc1cc(Oc2ccccc2)ccc1N1C(=O)Nc2c(C(=O)NC3CCCNC3)sc3nccc1c23 (stereo in doubt) [Example 869, (R)-5-(2-Methyl-4-phenoxyphenyl)-4-oxo-N-(piperidin-3-yl)-4,5-dihydro-3H-1-thia-3,5,8-triazaacenaphthylene-2-carboxamide] | IC50 [1]: 50.1 nM |
| – | Cc1cc(Oc2ccccc2)ccc1N1C(=O)Nc2c(C(=O)NC3CCCN(C(=O)CC#N)C3)sc3nccc1c23 (stereo in doubt) [Example 874, (R)—N-(1-(2-cyanoacetyl)piperidin-3-yl)-5-(2-methyl-4-phenoxyphenyl)-4-oxo-4,5-dihydro-3H-1-thia-3,5,8-triazaacenaphthylene-2-carboxamide] | IC50 [1]: 63.1 nM |

| Structure (SMILES) | BTK_I_binding pIC50 [1] | also measured |
| --- | --- | --- |
| Cc1cc(OCC(C)C)ncc1N1C(=O)Nc2c(C(=O)N[C@@H]3CCNC3)sc3nccc1c23 (single isomer, unassigned) [Example 798, (R)-5-(*S)-(6-Isobutoxy-4-methylpyridin-3-yl)-4-oxo-N-(pyrrolidin-3-yl)-4,5-dihydro-3H-1-thia-3,5,8-triazaacenaphthylene-2-carboxamide] | 6.3 | – |
